Assay results as given in article PMC8691714 (Cancer Research Communications, 2021).
Marks after values point to notes of the source that are not given here.

Key:
[1] = population PK model estimate, mice
[2] = set-up: method as in earlier work; settings: PBPK model parameter, ref [17, 18] and Drugbank, cited from earlier work
[3] = In vivo pharmacokinetic study in mice, oral ibrutinib (plasma, LC-MS/MS)
Protocol: (§1) Experiments were performed with male and female mice from inbred wild-type strains (FVB, C57BL/6, DBA) or with age- and sex-matched genetically engineered mice with a deficiency of the Cyp3a locus [(8 genes; FVB.129P2-Cyp3a13^tm1Ahs Del (5Cyp3a57-Cyp3a59)1Ahs); ref. [16]; CYP3A^−/−], a deficiency of the intestinal transporter OATP2B1 (ref. [17]; OATP2B1 ^−/−), or the hepatic transporter OATP1B2 (ref. [18]; OATP1B2 ^−/−). […] The studies were approved by the University Laboratory Animal Resources Animal Care and Use Committee at The Ohio State University (Columbus, OH). […] For in vivo studies, drugs were prepared in standard vehicles ([19, 20]). Details regarding the preparation of drugs are provided in the Supplementary Methods.
(§2) Pharmacokinetic studies were performed as described previously ([21]). Further details are provided in the Supplementary Methods.
(§3) The lower limit of quantification was 5 ng/mL, using 5-μL sample volumes. Details regarding the analytic method are provided in the Supplementary Methods.
(§4) Ketoconazole was prepared for oral administration as a 10-mg/mL suspension in PEG400, and cobicistat as a 6-mg/mL suspension in corn oil.
(§5) Pharmacokinetic studies were performed as previously described.
The analytical equipment consisted of a Vanquish UHPLC system, a TSQ Quantum Ultra triple quadrupole mass spectrometer from Thermo Fisher Scientific, and Thermo Trace Finder General Quan system software (version 3.3). An Accucore Vanquish C18 column (100 × 2.1 mm, dp = 1.5 μm; Thermo Fisher Scientific) was protected by a corresponding XBridgeBEH C18, 5-μm guard column. The injection volume of sample was 5.0 μL. The temperature of the autosampler rack was 4 °C, and the temperature of the column was 40 °C. Mobile phase A consisted of water with 0.1% (v/v) formic acid and mobile phase B consisted of acetonitrile: methanol (1:3) with 0.1% (v/v) formic acid. The total run time was 5 min. The mobile phase was delivered at a flow rate of 0.4 mL/min, and the optimized gradient contained time-varying amounts of mobile phase B, as follows: 0-0.5 min, 10% B; 0.5-1.5 min, 95% B; 1.5-2.9 min, 95% B; 2.9-3.0 min, 10% B; and 3.0-5.0 min, 10% B. The mass spectrometric assay settings included a positive voltage applied to the ESI capillary of 3500 V, a capillary temperature of 342 °C, and a vaporizer temperature of 358 °C. Argon was used a collision gas at a pressure of 1.5 mTorr. […] For sample extraction by protein precipitation, 5 µL of plasma, 5 µL of microsomal suspension, or 10 µL of homogenized tissue were added to a tube containing 60 µL of internal standard solution and 20 µL of methanol. Samples were then vortex-mixed, centrifuged at 13,000 rpm for 9.5 min, and supernatants collected and stored frozen until analysis. […] The lower limit of quantification was 5 ng/mL, using 5-µL sample volumes.

[4] = set-up: method as in earlier work; settings: PBPK model parameter, ref [17, 18] and Drugbank, cited from earlier work; remark: listed apart in the source
[5] = set-up: method as in earlier work; settings: PBPK model parameter, ref [17, 18] and Drugbank, cited from earlier work; remark: listed apart in the source
[6] = In vivo pharmacokinetic study in mice, intravenous ibrutinib (plasma); settings: female wild-type FVB mice, ibrutinib 1 mg/kg IV; for PCI-45227 AUC(0-last) / PCI-45227 Cmax: mean (SD)
Protocol: as §1, §2, §3, §4, §5

[7] = female CYP3A-/- mice, ibrutinib 10 mg/kg oral, no cotreatment, mean (SE)
[8] = female OATP1B2(-/-) mice, ibrutinib 10 mg/kg PO, no co-treatment, mean (SD)
[9] = female OATP2B1(-/-) mice, ibrutinib 10 mg/kg PO, no co-treatment, mean (SD)
[10] = female wild-type C57BL/6 mice, ibrutinib 10 mg/kg PO, no co-treatment, mean (SD)
[11] = female wild-type DBA mice, ibrutinib 10 mg/kg PO, no co-treatment, mean (SD)
[12] = female wild-type FVB mice, ibrutinib 4 mg/kg oral, cotreatment cobicistat 30 mg/kg, mean (SE)
[13] = female wild-type FVB mice, ibrutinib 10 mg/kg oral single dose, cotreatment cobicistat 30 mg/kg, mean (SE)
[14] = female wild-type FVB mice, ibrutinib 10 mg/kg oral single dose, cotreatment corn oil, mean (SE)
[15] = female wild-type FVB mice, ibrutinib 10 mg/kg oral, cotreatment PEG400, mean (SE)
[16] = female wild-type FVB mice, ibrutinib 10 mg/kg oral, cotreatment cobicistat 30 mg/kg, steady-state, mean (SE)
[17] = female wild-type FVB mice, ibrutinib 10 mg/kg oral, cotreatment corn oil, steady-state, mean (SE)
[18] = female wild-type FVB mice, ibrutinib 10 mg/kg oral, cotreatment ketoconazole 50 mg/kg, mean (SE)
[19] = female wild-type FVB mice, ibrutinib 10 mg/kg oral, no cotreatment, mean (SE)
[20] = female wild-type FVB mice, ibrutinib 30 mg/kg oral, no cotreatment, mean (SE)
[21] = male OATP2B1(-/-) mice, ibrutinib 10 mg/kg PO, no co-treatment, mean (SD)
[22] = male wild-type C57BL/6 mice, ibrutinib 10 mg/kg PO, no co-treatment, mean (SD)
[23] = male wild-type FVB mice, ibrutinib 10 mg/kg PO, co-treatment No Vehicle (cobicistat experiment), mean (SD)
[24] = male wild-type FVB mice, ibrutinib 10 mg/kg PO, co-treatment None (ketoconazole experiment), mean (SD)
[25] = male wild-type FVB mice, ibrutinib 10 mg/kg PO, co-treatment PEG400, mean (SD)
[26] = male wild-type FVB mice, ibrutinib 10 mg/kg PO, co-treatment cobicistat, mean (SD)
[27] = male wild-type FVB mice, ibrutinib 10 mg/kg PO, co-treatment corn oil, mean (SD)
[28] = male wild-type FVB mice, ibrutinib 10 mg/kg PO, co-treatment ketoconazole, mean (SD)

- IIV CLm ([1]; inter-individual variability): 0.0242
- IIV Vm ([1]; inter-individual variability): 1.38
- Fmet (metabolism of PCI-45227) [1]: 0.0216
- Vm (volume of distribution for the central compartment of PCI-45227) [1]: 0.0578
- RV PCI ([1]; residual variability): 0.730
- levels of PCI-45227 ([3]; CYP3A-/- mice, oral ibrutinib): almost undetectable levels
- PCI-45227: Ibrutinib AUC ratio ([3]; female CYP3A-/- mice, ibrutinib 10 mg/kg oral, no cotreatment): 0.003
- PCI-45227 AUC(0-last) [3, 7]: 6.3 (1.7)^c ng/h/mL
- PCI-45227 Cmax [3, 7]: 8.2 (2.1)^c ng/mL
- PCI-45227: Parent AUC Ratio ([3]; female OATP1B2(-/-) mice, ibrutinib 10 mg/kg PO, no co-treatment): 0.14
- PCI-45227 AUC(0-last) [3, 8]: 304 (12) ng*hr/mL
- PCI-45227 Cmax [3, 8]: 157 (9) ng/mL
- PCI-45227: Parent AUC Ratio ([3]; female OATP2B1(-/-) mice, ibrutinib 10 mg/kg PO, no co-treatment): 1.1
- PCI-45227 AUC(0-last) [3, 9]: 1952 (168)** ng*hr/mL
- PCI-45227 Cmax [3, 9]: 745 (115)** ng/mL
- PCI-45227: Parent AUC Ratio ([3]; female wild-type C57BL/6 mice, ibrutinib 10 mg/kg PO, no co-treatment): 2.1
- PCI-45227 AUC(0-last) [3, 10]: 3007 (236) ng*hr/mL
- PCI-45227 Cmax [3, 10]: 1373 (70) ng/mL
- PCI-45227: Parent AUC Ratio ([3]; female wild-type DBA mice, ibrutinib 10 mg/kg PO, no co-treatment): 0.12
- PCI-45227 AUC(0-last) [3, 11]: 343 (52) ng*hr/mL
- PCI-45227 Cmax [3, 11]: 234 (47) ng/mL
- PCI-45227: Ibrutinib AUC ratio ([3]; female wild-type FVB mice, ibrutinib 4 mg/kg oral, cotreatment cobicistat 30 mg/kg): 0.05
- PCI-45227 AUC(0-last) [3, 12]: 56 (22)^c ng/h/mL
- PCI-45227 Cmax [3, 12]: 30.7 (12.1)^c ng/mL
- PCI-45227: Ibrutinib AUC ratio ([3]; female wild-type FVB mice, ibrutinib 10 mg/kg oral single dose, cotreatment cobicistat 30 mg/kg): 0.05
- PCI-45227 AUC(0-last) [3, 13]: 139 (56)^c ng/h/mL
- PCI-45227 Cmax [3, 13]: 45 (14)^c ng/mL
- PCI-45227: Ibrutinib AUC ratio ([3]; female wild-type FVB mice, ibrutinib 10 mg/kg oral single dose, cotreatment corn oil): 2.0
- PCI-45227 AUC(0-last) [3, 14]: 563 (91)^d ng/h/mL
- PCI-45227 Cmax [3, 14]: 219 (61)^b ng/mL
- PCI-45227: Ibrutinib AUC ratio ([3]; female wild-type FVB mice, ibrutinib 10 mg/kg oral, cotreatment PEG400): 0.87
- PCI-45227 AUC(0-last) [3, 15]: 668 (155) ng/h/mL
- PCI-45227 Cmax [3, 15]: 246 (54) ng/mL
- PCI-45227: Ibrutinib AUC ratio ([3]; female wild-type FVB mice, ibrutinib 10 mg/kg oral, cotreatment cobicistat 30 mg/kg, steady-state): 0.25
- PCI-45227 AUC(0-last) [3, 16]: 560 (73)^b ng/h/mL
- PCI-45227 Cmax [3, 16]: 211 (65) ng/mL
- PCI-45227: Ibrutinib AUC ratio ([3]; female wild-type FVB mice, ibrutinib 10 mg/kg oral, cotreatment corn oil, steady-state): 2.0
- PCI-45227 AUC(0-last) [3, 17]: 917 (128) ng/h/mL
- PCI-45227 Cmax [3, 17]: 405 (74) ng/mL
- PCI-45227: Ibrutinib AUC ratio ([3]; female wild-type FVB mice, ibrutinib 10 mg/kg oral, cotreatment ketoconazole 50 mg/kg): 0.08
- PCI-45227 AUC(0-last) [3, 18]: 682 (250) ng/h/mL
- PCI-45227 Cmax [3, 18]: 288 (89) ng/mL
- PCI-45227: Ibrutinib AUC ratio ([3]; female wild-type FVB mice, ibrutinib 10 mg/kg oral, no cotreatment): 2.5
- PCI-45227 AUC(0-last) [3, 19]: 765 (79) ng/h/mL
- PCI-45227 Cmax [3, 19]: 447 (45) ng/mL
- PCI-45227: Ibrutinib AUC ratio ([3]; female wild-type FVB mice, ibrutinib 30 mg/kg oral, no cotreatment): 1.9
- PCI-45227 AUC(0-last) [3, 20]: 3,281 (154) ng/h/mL
- PCI-45227 Cmax [3, 20]: 837 (77) ng/mL
- PCI-45227: Parent AUC Ratio ([3]; male OATP2B1(-/-) mice, ibrutinib 10 mg/kg PO, no co-treatment): 1.3
- PCI-45227 AUC(0-last) [3, 21]: 2236 (160)*** ng*hr/mL
- PCI-45227 Cmax [3, 21]: 850 (96)* ng/mL
- PCI-45227: Parent AUC Ratio ([3]; male wild-type C57BL/6 mice, ibrutinib 10 mg/kg PO, no co-treatment): 2.4
- PCI-45227 AUC(0-last) [3, 22]: 3338 (239) ng*hr/mL
- PCI-45227 Cmax [3, 22]: 1252 (97) ng/mL
- PCI-45227: Parent AUC Ratio ([3]; male wild-type FVB mice, ibrutinib 10 mg/kg PO, co-treatment No Vehicle (cobicistat experiment)): 2.8
- PCI-45227 AUC(0-last) [3, 23]: 1463 (83) ng*hr/mL
- PCI-45227 Cmax [3, 23]: 578 (100) ng/mL
- PCI-45227: Parent AUC Ratio ([3]; male wild-type FVB mice, ibrutinib 10 mg/kg PO, co-treatment None (ketoconazole experiment)): 2.5
- PCI-45227 AUC(0-last) [3, 24]: 1080 (153) ng*hr/mL
- PCI-45227 Cmax [3, 24]: 333 (112) ng/mL
- PCI-45227: Parent AUC Ratio ([3]; male wild-type FVB mice, ibrutinib 10 mg/kg PO, co-treatment PEG400): 1.5
- PCI-45227 AUC(0-last) [3, 25]: 929 (164) ng*hr/mL
- PCI-45227 Cmax [3, 25]: 293 (69) ng/mL
- PCI-45227: Parent AUC Ratio ([3]; male wild-type FVB mice, ibrutinib 10 mg/kg PO, co-treatment cobicistat): 0.096
- PCI-45227 AUC(0-last) [3, 26]: 417 (60)*** ng*hr/mL
- PCI-45227 Cmax [3, 26]: 124 (34)* ng/mL
- PCI-45227: Parent AUC Ratio ([3]; male wild-type FVB mice, ibrutinib 10 mg/kg PO, co-treatment corn oil): 1.7
- PCI-45227 AUC(0-last) [3, 27]: 1124 (152)^a ng*hr/mL
- PCI-45227 Cmax [3, 27]: 308 (70) ng/mL
- PCI-45227: Parent AUC Ratio ([3]; male wild-type FVB mice, ibrutinib 10 mg/kg PO, co-treatment ketoconazole): 0.14
- PCI-45227 AUC(0-last) [3, 28]: 911 (94) ng*hr/mL
- PCI-45227 Cmax [3, 28]: 236 (37) ng/mL
- levels of PCI-45227 ([3]; mice lacking OATP2B1 vs wild-type, ibrutinib 10 mg/kg orally, P < 0.05): decreased
- levels of PCI-45227 and PCI-45227-to-ibrutinib ratio ([3]; wild-type mice, cobicistat pretreatment): significantly decreased
- PCI-45227: Parent AUC Ratio ([6]; co-treatment cobicistat): 0.04
- PCI-45227 AUC(0-last) ([6]; co-treatment cobicistat): 38 (27) ng*hr/mL
- PCI-45227 Cmax ([6]; co-treatment cobicistat): 25 (11) ng/mL
- PCI-45227 AUC(0-last) ([6]; co-treatment corn oil): 311 (15) ng*hr/mL
- PCI-45227 Cmax ([6]; co-treatment corn oil): 197 (5) ng/mL
SMILES: Nc1ncnc2c1c(-c1ccc(Oc3ccccc3)cc1)nn2[C@@H]1CCCN(C(=O)C(O)CO)C1 (stereo partly shown) [PCI-45227]
- B/P ratio ([2]; blood to plasma ratio): 0.790
- fu, plasma ([2]; unbound drug in the plasma): 0.056
- pKa ([4]; acid dissociation constant): 4.06
- Log Po:w ([4]; octanol/water partition coefficient): 2.21
- Clpo ([5]; oral clearance): Clpo (L/h) : 433
- Vss ([5]; steady-state volume of distribution): 9.0 L/kg
